Measured values published in patent US7977466B2, “C-glycoside derivatives and salts thereof” (Astellas Pharma Inc., priority 2003, dated 2011).

Columns and labels:
human SGLT2 = molecular target: T1, human SGLT2 (Homo sapiens, UniProt P31639); test: Inhibition of human Na+-glucose cotransporter (human SGLT2) activity: methyl-α-D-glucopyranoside intake in CHO cells stably expressing human SGLT2; format: cell-based; conditions: CHO cell stably expressing human SGLT2; methyl-α-D-(U-14C)glucopyranoside intake, 37° C., two hours
T1 construct: expressed in transfected cells; host or cells: CHO-K1
T1 sequence (P31639 1-672): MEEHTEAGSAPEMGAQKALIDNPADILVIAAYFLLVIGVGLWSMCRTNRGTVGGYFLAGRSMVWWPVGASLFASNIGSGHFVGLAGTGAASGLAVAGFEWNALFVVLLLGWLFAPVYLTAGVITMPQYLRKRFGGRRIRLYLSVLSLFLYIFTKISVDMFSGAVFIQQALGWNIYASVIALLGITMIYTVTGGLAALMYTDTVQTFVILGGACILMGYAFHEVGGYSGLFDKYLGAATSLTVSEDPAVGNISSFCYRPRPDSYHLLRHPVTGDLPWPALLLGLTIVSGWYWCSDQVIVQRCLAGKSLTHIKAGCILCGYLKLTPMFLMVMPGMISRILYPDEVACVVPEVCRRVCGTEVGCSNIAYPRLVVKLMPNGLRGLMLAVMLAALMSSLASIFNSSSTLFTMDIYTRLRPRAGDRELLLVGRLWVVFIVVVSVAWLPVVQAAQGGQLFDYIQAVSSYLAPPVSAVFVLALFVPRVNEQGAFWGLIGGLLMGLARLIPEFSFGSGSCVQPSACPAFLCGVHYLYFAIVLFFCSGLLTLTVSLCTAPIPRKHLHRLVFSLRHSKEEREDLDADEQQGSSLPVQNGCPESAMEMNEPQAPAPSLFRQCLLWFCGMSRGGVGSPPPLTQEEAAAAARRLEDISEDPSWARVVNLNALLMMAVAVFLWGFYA
Description: Inhibition of Human Na^+-Glucose Cotransporter (Human SGLT2) Activity
(1) Preparation of Human SGLT 2 Expression Vector
First, single-strand cDNA was reversely transcripted from total RNA originating from the human kidney (manufactured by BD Biosciences Clontech) using a Superscript II (manufactured by Invitrogen Corporation) and a random hexamer. Second, using the cDNA as a template, a DNA fragment encoding a human SGLT2 (Wells, R. G. et al., Am. J. Physiol., 1992, 263(3) F459) was amplified by the PCR reaction using Pyrobest DNA polymerase (manufactured by Takara Bio Inc.). That is, a Hind III site and an EcoRI site were inserted into the 5′ side and the 3′ side of the DNA fragment, respectively by using primers.
The amplified fragment was cloned into a pCR2.1-Topo vector using a Topo TA Cloning Kit (manufactured by Invitrogen Corporation) and the cloned vector was transfected into a competent cell of Escherichia coli JM109. Ampicillin-resistant clones were cultured in a LB medium containing ampicillin (100 mg/l). A plasmid was purified from the cultured Escherichia coli using the method of Hanahan (see Maniatis et al., “Molecular Cloning”). A DNA fragment for encoding a human SGLT2 was obtained by the Hind III/EcoRI digestion of the plasmid and ligated and cloned to the same site of the expression vector pcDNA 3.1 (manufactured by Invitrogen Corporation) using a DNA ligase (manufactured by Roche Diagnostics). The ligated clone was transfected into a competent cell of Escherichia coli JM109 in the same manner as described above and cultured in a LB medium containing ampicillin, and a human SGLT2 expression vector was obtained using the method of Hanahan.
(2) Preparation of Human SGLT2 Expressed Cells
The human SGLT2 expression vector was transfected into a CHO-K1 cell using Lipofectamine2000 (manufactured by Invitrogen Corporation). The cell was cultured in a Ham's F12 medium (manufactured by Nissui Pharmaceutical Co., Ltd.) containing penicillin (50 IU/ml, manufactured by Dainippon Pharmaceutical Co., Ltd.), streptomycin (50 μg/ml, manufactured by Dainippon Pharmaceutical Co., Ltd.), Geneticin (40 μg/ml, manufactured by Invitrogen Corporation), and 10% fetal bovine serum in the presence of 5% CO2 at 37° C. for two weeks, and Geneticin-resistant clones were obtained.
(3) Inhibition of methyl-α-D-glucopyranoside Intake
After removing the medium of a CHO cell which stably expresses the human SGLT2, a pretreatment buffer solution (buffer solution of pH 7.4 containing choline chloride (140 mM), potassium chloride (2 mM), calcium chloride (1 mM), magnesium chloride (1 mM), 2-[4-(2-hydroxyethyl)1-piperazinyl]ethanesulfonic acid (10 mM), and tris(hydroxymethyl)aminomethane (5 mM)) was added in the amount of 100 μl per well, and incubated at 37° C. for 20 minutes.
11 μl of methyl-α-D-(U-14C)glucopyranoside (manufactured by Amersham Pharmacia Biotech) was mixed with 1,000 μl of a buffer solution for intake containing a test compound (buffer solution of pH 7.4 containing sodium chloride (140 mM), potassium chloride (2 mM), calcium chloride (1 mM), magnesium chloride (1 mM), methyl-α-D-glucopyranoside (50 μM), 2-[4-(2-hydroxy ethyl)1-piperazinyl]ethanesulfonic acid (10 mM), and tris(hydroxymethyl)aminomethane (5 mM)) to prepare a buffer solution for intake. A buffer solution for intake without a test compound was prepared for a control group. A buffer solution for basal intake without a test compound containing choline chloride (140 mM) instead of sodium chloride for measuring the basal intake was prepared as well.
After removing the pretreatment buffer solution, the buffer solution for intake was added (25 μl per well) and incubated at 37° C. for two hours. […]

[1] = tested on: blood glucose of KK-A^y mice; test: Hypoglycemic activity confirmation test in fed KK-Ay mice; format: in vivo, mouse; conditions: fed male KK-A^y mice, oral, suspension 1 mg/10 ml in 0.5% methylcellulose at 10 ml/kg
Description: Hypoglycemic Activity Confirmation Test
Fed KK-A^y mice (CLEA Japan, Inc., male) were used. The test compound was suspended in 0.5% methylcellulose solution to a concentration of 1 mg/10 ml. The weight of each mouse was measured. The test compound suspension was orally administered to the mice at a dose of 10 ml/kg. Only 0.5% methylcellulose solution was administered to the mice of a control group. Each group consisted of six mice. Blood was collected from the tail vein immediately before administering the compound and one, two, four, and eight hours after administering the compound. The blood glucose value was measured using a glucose CII Test Wako (manufactured by Wako Pure Chemical Industries, Ltd.). The intensity of hypoglycemic activity was determined by calculating the area under the blood glucose value-time curve (AUC) using a trapezoidal method from the glucose value of 0-8 hours after administering the compound and calculating the rate (%) of the decrease in the AUC of the drug-administered group from that of the control group.

Row | SMILES | IC50 (human SGLT2) [nM] | Hypoglycemic activity (rate of decrease in blood glucose AUC 0-8 hours versus control group) [1] [%]
1 | COc1ccc(Cc2cc3ccccc3s2)cc1[C@@H]1O[C@H](CO)[C@@H](O)[C@H](O)[C@H]1O [Example 117] | 13 | –
2 | COc1ccc([C@@H]2O[C@H](CO)[C@@H](O)[C@H](O)[C@H]2O)cc1Cc1cc2ccccc2s1 [Example 134] | 14 | 39
3 | COc1cc(OC)c([C@@H]2O[C@H](CO)[C@@H](O)[C@H](O)[C@H]2O)cc1Cc1cc2ccccc2s1 [Example 141] | 3.8 | 34
4 | OC[C@H]1O[C@@H](c2cc(Cc3cc4ccccc4s3)c(O)cc2O)[C@H](O)[C@@H](O)[C@@H]1O [Example 142] | 21 | –

Further lines, with some results ahead:

Row | IC50 (human SGLT2) [nM] | SMILES | Hypoglycemic activity (rate of decrease in blood glucose AUC 0-8 hours versus control group) [1] [%]
5 | 6.5 | CCc1ccc(Cc2nc([C@@H]3O[C@H](CO)[C@@H](O)[C@H](O)[C@H]3O)c(Cl)nc2Cl)cc1 [Example 150] | –
6 | 6.6 | OC[C@H]1O[C@@H](c2cc(Cc3cc4ccsc4s3)ccc2O)[C@H](O)[C@@H](O)[C@@H]1O [Example 174] | –
